Results reported in patent US4233309A, “Novel 1-substituted-3-acylpyrrole derivatives, platelet aggregation inhibitors containing them, as active ingredients, and processes for production of said derivatives” (Teijin Limited, priority 1977, dated 1980).
≈ marks a conversion by molar mass, not a printed value.

System: platelet aggregation (platelet-rich plasmas (PRP) of guinea pigs)
Assay: Activity of inhibiting platelet aggregation in vitro, guinea pig PRP, sodium arachidonate as aggregating agent (Table 1)
Format: cell-based, Hartley-strain male guinea pigs
Details: Cavia porcellus, sodium arachidonate 0.03 mM final, 37° C., final concentration, read-out: IC50 (minimum concentration of drug which showed a percent inhibition of more than 50%)
Method: Some 1-substituted-3-acylpyrrole derivatives and other drugs were tested for platelet aggregation inhibiting activities in vitro using platelet-rich plasmas (PRP) of man and guinea pigs. The results are shown as minimum concentration of drugs which inhibit more than 50% of platelet aggregation induced by several aggregating agents.
In experiments with PRP of guinea pigs, sodium arachidonate (final concentration 0.03 mM) was used as an aggregating agent. In experiments with human PRP, sodium arachidonate (final concentration 0.1 mM), collagan suspension (final concentration 10 μg/ml), epinephrine solution (final concentration 20 μg/ml; for secondary aggregation), an epinephrine solution (final concentration 2 μg/ml; for primary aggregation) and ADP (final concentration 5 μM) were used as aggregating agents.
In an experiment with guinea pig PRP, citrated blood (containing 0.38% sodium citrate as a final concentration) was withdrawn by cardiac puncture from Hartley-strain male guinea pigs having a body weight of 350 to 600 g. The citrated blood was centrifuged at 1,000 rpm for 10 minutes at room temperature, and the supernatant platelet suspension (PRP) was separated.
The PRP was stored at room temperature, and used as soon as possible. Those which had been stored for more than 4 hours after preparation were not used.
For each test, a drug is dissolved in dimethylsulfoxide to a concentration of 10 mg/ml, and diluted with physiological saline to form 1 ml each of solutions having a concentration of 2500 μg/ml, 1000 μg/ml, 750 μg/ml, 500 μg/ml, 250 μg/ml and 100 μg/ml. A compound having a free carboxylic acid as a residue such as indomethacine and Ibprofen was dissolved in 0.1 M NaHCO3 to form a sodium salt solution having a concentration of 10 mg/ml. Then, the solution was diluted with physiological saline in the same way as above to form a test drug solution.
Arachidonic acid (99% pure, a product of Sigma Co., Ltd.) was dissolved in 0.1 M NaHCO3, and a 3.3 mM solution of sodium arachidonate was prepared. The solution was diluted with physiological saline to a concentration of 1 mM and used in the experiments. The 3.3 mM solution was stored in a refrigerator as a stock solution, and the 1 mM solution was newly prepared from the stock solution every time it was used.
Physiological saline (50 μl) and 50 μl of the aggregating agent solution were added to 400 μl of PRP which had been pre-warmed and stirred at 37° C. in a quvett set in a holder of an aggregometer. Platelet aggregation was thus initiated, and the change of light transmittance through a stirred platelet suspension was recorded for 3 minutes by a recorder joined to the aggregometer. An increase in transmittance after 3 minutes (T0) was used as a parameter of the rate of platelet aggregation in control experiments.
To 400 μl of PRP in a quvett was added 50 μl of a test drug solution. The mixture was pre-incubated and stirred for 2 minutes at 37° C. Then 50 μl of the aggregating agent was added to drug containing PRP and again aggregation responses were recorded as increases in light transmittance after 3 minutes (T1) in the same way as in (1) above. Percent inhibition was calculated from the formula [formula]
For the above in vitro test for the inhibition of platelet aggregation, reference may be had to H. M. Davis, J. Phyllis, K. Paul and W. Terry: Thromb. Res. 11, 217-226 (1977) and R. E. Anderson and J. G. Foulks: Thromb. Haemos. 36, 343-359 (1976).

Cc1cc(C(=O)c2ccccc2)c(C)n1CC(C)O (stereo not shown) [Compound 102, 2-(3-benzoyl-2,5-dimethylpyrrol-1-yl)-1-methylethanol]
IC50: 5 µg/mL (≈ 19.4 µM)
